Source: patent US12060408B2, “Screening assays, modulators and modulation of activation of Receptor for Advanced Glycation End-products (RAGE)” (Monash University, priority 2017, dated 2024)
Entries after “also recorded” stand apart in the source; their conditions may differ.

Experiments:
[1] = tested on: primary murine aortic endothelial cells (PMAEC); test: Expression of pro-inflammatory markers by real-time RT-PCR in primary murine aortic endothelial cells; type: cell-based, mouse
Experimental: Primary aortic endothelial cells (PMAEC) were isolated from the aortae of (wild-type) C57bl6 mice and AGER KO mice and cultured in Dulbecco's modified Eagle's medium (DMEM)/F12 endothelial cell growth supplement (ECGS) supplemented media. Chinese Hamster Ovary (CHO) cells were cultured using F12 media (10% FCS with 2 mM glutamine). Human microvascular endothelial cells (HMEC) were cultured in MCDB 131 medium (10% FCS with 10 mM glutamine, EGF and hydrocortisone).
(§1) Cellular Expression of Pro-Inflammatory Markers and Mediators by Quantitative Real-Time PCR
(§2) After 2 hours of exposure to Ang II (1 μM) or the RAGE ligand, S100A8/A9 (5 ng/ml) cells were placed in Trizol, mRNA extracted and cDNA synthesized. Changes in the gene expression of the NFκB subunit, p65 (RelA) or NFκB-activated target genes (e.g ICAM-1, VCAM-1) were estimated by quantitative real-time RT-PCR, performed using the TaqMan system based on real-time detection of accumulated fluorescence (ABI Prism 7700, Perkin-Elmer Inc, PE Biosystems, Foster City, CA, USA). Gene expression was normalized to 18S mRNA and reported as fold change compared to the level of expression in untreated control mice/cells, which were given an arbitrary value of 1.
Selective Silencing of Gene Expression Using siRNA
PMAEC from C57b/6 mice were also transfected with siRNA to RAGE (2 nM) Ambion, ID:s62119), p65 (RelA) (10 nM; Ambion, ID:s72857), MyD88 (10 nM; Ambion. ID:s201719), PKCζ (10 nM; Ambion, ID:s71716), IQGAP-1, Ambion, ID:s78119), Diaph1 (10 nM; sense5′-[…], antisense 3′-[…]; Invitrogen) or scrambled control #1 (2 nM or 10 nM; Ambion) using Lipofectamine RNAiMAX (Invitrogen) as per manufacturer's instructions. Cells were allowed to recover in media containing 10% FBS for 16 hours prior to treatment with 1 μM Ang II or 5 ng/ml of the RAGE ligand, S100A8/A9, as a signalling control.

[2] = tested on: RAGE ligand-independent activation of RAGE by activated AT1R; test: Ang II-induced NFκB activation (p65 gene expression, SEAP reporter) in AT1R-CHO cells with RAGE constructs; type: cell-based, human
Experimental: (§3) Generation of Transgenic Chinese Hamster Ovary Cells
(§4) 100 ng of AT1R-Rluc8 construct was transfected into CHO cells using Lipofectamine 2000 (Thermo). Stable transfectants were selected using G418. AT1R—CHO were then transiently transfected with RAGE constructs using Lipofectamine 2000 (Invitrogen) and incubated for 16 h. The Homo sapiens AGER transcript variant 1 coding sequence (NM_001136) was synthesised and cloned between the NheI and XbaI sites of pCIneo (Promega) to generate the vector pCIneo-RAGE. This plasmid was then used to generate a library of mutant AGER clones (NP_001127). Primers 1-RAGE-SP-5′ and mCherry-XhoI-NotI-3′ were used to amplify the coding sequence of mCherry from the vector pmCherry-C1. The resultant PCR product was then used as template for a second PCR using primers 2-RAGE-SP-5′ and mCherry-XhoI-NotI-3′. The PCR product generated was digested with NheI and NotI and inserted between the NheI and NotI sites of pCIneo to generate pCIneo-SP-mCherry. The sequence of the insert was confirmed by DNA sequencing (Micromon, Monash University). […]
as §1, §2
Oligopeptides (Cherry-TAT (control), mCherry-TAT-RAGE362-404 and mCherry-S391A-TAT-RAGE362-404 were generated by transformation of the Escherichia coli strain ClearColi BL21 (DE3; Lucigen). A single transformed colony was inoculated into 50 ml 2YT medium containing 100 μg/ml ampicillin and the culture was grown overnight at 37° C. with shaking at 250 rev/min. 10 ml overnight culture was used to inoculate 1 litre 2YT medium containing 100 μg/ml ampicillin and the culture was grown at 37° C. with shaking at 250 rev/min. When the cultures reached an OD600 of 0.8, the temperature was shifted to 15° C. for 30 min after which protein expression was induced by the addition of 1 mM isopropyl β-D-1-thiogalacto-pyranoside (IPTG). Following the addition of IPTG the cultures were grown for ˜16 h at 15° C. with shaking at 250 rev/min. Cells were harvested by centrifugation (3500 g, 4° C., 20 min) and resuspended in ice-cold lysis buffer (50 mM Tris pH 7.4, 300 mM NaCl, 10 mM imidazole and 5 mM beta-mercaptoethanol). The resuspended cells were sonicated and insoluble material was pelleted by centrifugation (13 000 g, 4° C., 30 min). The supernatant was filtered (0.2 μm) and applied onto a gravity-flow column with a 1 ml Ni-NTA Agarose resin bed volume (Qiagen) pre-equilibrated with lysis buffer. After the supernatant was passed over the resin, the column was washed with 100 ml of wash buffer (20 mM imidazole, 50 mM Tris pH 7.4, 150 mM NaCl, 5 mM beta-mercaptoethanol). His-tagged TAT-mCherry and TAT-mCherry-RAGE peptides were eluted from the resin using elution buffer (250 mM imidazole, 50 mM Tris pH 7.4, 150 mM NaCl, 5 mM beta-mercaptoethanol). […]

[3] = tested on: RAGE ligand-dependent activation of RAGE; test: S100A8/A9-induced NFκB activation (p65 gene expression) in CHO cells expressing RAGE constructs; type: cell-based, human
Experimental: as §3, §4, §1, §2
To measure the induction of NFκB activity by 1 μM Ang II, or 5 ng/ml of the RAGE-ligand S100A8/A9 as a signalling control, AT1R—CHO cells were transfected with 0.4 μg of plasmids encoding NFκB-SEAP or β-galactosidase (β-Gal) using Lipofectamine 2000 (Invitrogen) as per manufacturer's instructions. After 24 hours, cells transfected with each plasmid combination were then treated with Ang II (1 μM) or left untreated and incubated for 4 hours before cell supernatants and cell lysates were collected. Cell supernatants were analysed using a chemiluminescent SEAP reporter gene assay (Roche Applied Science) to detect SEAP production after treatment. To control for transfection efficiency, cell lysates were assayed for β-Gal using a commercially available kit (Promega).

[4] = summary statement, cell system not given

| Substance | induction of pro-inflammatory genes ([1]; PMAEC from AGER KO mice) | markers of canonical or non-canonical activation of NFκB ([1]; PMAEC from AGER KO mice) | canonical and non-canonical signalling downstream of NFκB (CXCL2, CXCL12) ([1]; PMAEC from C57bl6 mice) | expression of pro-inflammatory genes (ICAM-1, VCAM-1, TNFα, MCP-1) ([1]; PMAEC from C57bl6 mice, Ang II 1 μM or S100A8/A9) | NFκB-dependent induction of VCAM-1 gene expression ([1]; PMAEC with AGER expression silenced using siRNA) | activation of p65-NFκB ([2]; AT1R-CHO cells expressing full-length human RAGE, 1 μM) | expression of p65-NFκB / NFκB activation ([2]; AT1R-CHO cells without RAGE, 1 μM) | inhibition of S100A8/A9-induced p65 expression ([3]; AT1R-CHO cells also expressing full length RAGE) | inhibition of RAGE ligand-dependent activation of wild-type RAGE (S100A8/A9) [3, 4] | inhibition of VCAM-1 induction in response to Ang II or S100A8/A9 ([1]; PMAEC endogenously replete in RAGE) | inhibition of Ang II-dependent p65 induction after pre-treatment with wild-type RAGE362-404 peptide ([2]; AT1R-CHO cells) | inhibition of Ang II-dependent p65 induction with subsequent wild-type RAGE362-404 in thousand-fold excess ([2]; AT1R-CHO cells) | inhibition of Ang II-induced p65 and PCNA gene expression in the absence of targets for RAGE phosphorylation ([2]; AT1R-CHO cells transfected with full length S391Q-cRAGE) | ability of the RAGE construct to be activated and mediate pro-inflammatory signalling in response to Ang II ([2]; construct expressed in AT1R-CHO cells, no wild-type RAGE) | inhibition of RAGE ligand-independent activation of wild-type RAGE by activated AT1R [2, 4] |
| --- | --- | --- | --- | --- | --- | --- | --- | --- | --- | --- | --- | --- | --- | --- | --- |
| angiotensin II (DRVYIHPF) [Ang II, cognate ligand of AT1R] | does not lead to the induction | does not lead to | induction of both canonical and non-canonical signalling | increased expression | preventing | able to induce activation | unable to induce | – | – | – | – | – | – | – | – |
| L362WQRRQRRGEERKAPENQEEEEERAELNQAEEPEAGESSTGGP404 (LWQRRQRRGEERKAPENQEEEEERAELNQAEEPEAGESSTGGP; listed as Homo sapiens) [S391A-RAGE362-404, S391A mutant RAGE cytosolic tail; non-functional substitute for RAGE] | – | – | – | – | – | – | – | inhibitory effect | inhibits | inhibitory effect | not reversed | observed | maintained; also recorded: inhibitory effects | not activated | inhibits |
